Data taken from ChEMBL document CHEMBL3880442, “NHE3-binding compounds and methods for inhibiting phosphate transport” (2014).
Active and inactive are the calls of the source. The rule behind the calls is not given here.

Assays:
Rattus norvegicus [1] = assay: Effect on sodium level in urine in Sprague-Dawley rat at 10 mg/kg administered via oral gavage measured after 16 hrs by gravimetric analysis relative to vehicle-treated control; format: functional
Rattus norvegicus [2] = assay: Effect on phosphate level in urine in Sprague-Dawley rat at 10 mg/kg administered via oral gavage measured after 16 hrs by gravimetric analysis relative to vehicle-treated control; format: functional
Rattus norvegicus [3] = assay: Effect on sodium level in urine in Sprague-Dawley rat at 3 mg/kg administered via oral gavage measured after 16 hrs by gravimetric analysis relative to vehicle-treated control; format: functional
Rattus norvegicus [4] = assay: Effect on phosphate level in urine in Sprague-Dawley rat at 3 mg/kg administered via oral gavage measured after 16 hrs by gravimetric analysis relative to vehicle-treated control; format: functional
Rattus norvegicus [5] = species on record: Rattus norvegicus; assay: Reduction in aortic calcium content in Sprague-Dawley rat model of uremia-associated vascular calcification measured after 27 days in presence of calcitriol; format: functional
Rattus norvegicus [6] = assay: Antihypertensive activity in dietary salt-induced Sprague-Dawley rat partial ablation model of chronic kidney disease assessed as reduction in blood pressure at 0.3 to 3 mg/kg administered with chow diet measured after 7 days; format: functional, organism-based
Rattus norvegicus [7] = assay: Anti-remodeling activity in adenine-induced uremic Sprague-Dawley rat model assessed as decrease in ratio of aortic arch weight to body weight at 2 to 5 mg/kg administered with chow diet; format: functional, organism-based
Rattus norvegicus [8] = assay: Antihypertrophic activity in dietary salt-induced Sprague-Dawley rat partial ablation model of chronic kidney disease assessed as change in kidney morphology at 0.3 to 3 mg/kg administered with chow diet measured after 7 days; format: functional, organism-based
Rattus norvegicus [9] = species on record: Rattus norvegicus; assay: Reduction in stomach calcium content in Sprague-Dawley rat model of uremia-associated vascular calcification measured after 27 days in presence of calcitriol; format: functional
Rattus norvegicus [10] = assay: Reduction in serum phosphorus level in adenine-induced uremic Sprague-Dawley rat model at 2 to 5 mg/kg administered with chow diet; format: functional, organism-based
Rattus norvegicus [11] = assay: Anti-remodeling activity in adenine-induced uremic Sprague-Dawley rat model assessed as decrease in ratio of stomach weight to body weight at 2 to 5 mg/kg administered with chow diet; format: functional, organism-based
Rattus norvegicus [12] = species on record: Rattus norvegicus; assay: Reduction in stomach phosphorus content in Sprague-Dawley rat model of uremia-associated vascular calcification measured after 27 days in presence of calcitriol; format: functional
Rattus norvegicus [13] = assay: Reduction in urinary calcium mass in rat at 0.3 to 3 mg/kg administered with diet relative to vehicle-control; format: functional, organism-based
Rattus norvegicus [14] = species on record: Rattus norvegicus; assay: Reduction in plasma phosphorus level in Sprague-Dawley rat model of uremia-associated vascular calcification measured after 27 days in presence of calcitriol; format: functional
Rattus norvegicus [15] = species on record: Rattus norvegicus; assay: Reduction in creatinine clearance in Sprague-Dawley rat model of uremia-associated vascular calcification measured after 27 days in presence of calcitriol; format: functional
[16] = Reduction in fluid overload in dietary salt-induced Sprague-Dawley rat partial ablation model of chronic kidney disease at 0.3 to 3 mg/kg administered with chow diet measured after 7 days; format: functional, organism-based
Rattus norvegicus [17] = assay: Reduction in urinary phosphorus mass in rat at 0.3 to 3 mg/kg administered with diet relative to vehicle-control; format: functional, organism-based
Rattus norvegicus [18] = species on record: Rattus norvegicus; assay: Increase in plasma aldosterone level in Sprague-Dawley rat model of uremia-associated vascular calcification measured after 27 days in presence of calcitriol; format: functional
Rattus norvegicus [19] = assay: Reduction in serum creatinine level in adenine-induced uremic Sprague-Dawley rat model at 2 to 5 mg/kg administered with chow diet; format: functional, organism-based
Rattus norvegicus [20] = species on record: Rattus norvegicus; assay: Increase in plasma calcium level in Sprague-Dawley rat model of uremia-associated vascular calcification measured after 27 days in presence of calcitriol; format: functional
Rattus norvegicus [21] = species on record: Rattus norvegicus; assay: Effect on heart hypertrophy in Sprague-Dawley rat model of uremia-associated vascular calcification assessed as reduction in heart to body weight ratio measured after 27 days in presence of calcitriol; format: functional
Rattus norvegicus [22] = assay: Reduction in stomach phosphorus content in adenine-induced uremic Sprague-Dawley rat model at 5 mg/kg administered with chow diet; format: functional, organism-based
Rattus norvegicus [23] = species on record: Rattus norvegicus; assay: Reduction in aortic phosphorus content in Sprague-Dawley rat model of uremia-associated vascular calcification measured after 27 days in presence of calcitriol; format: functional
Rattus norvegicus [24] = species on record: Rattus norvegicus; assay: Effect on kidney hypertrophy in Sprague-Dawley rat model of uremia-associated vascular calcification assessed as reduction in kidney to body weight ratio measured after 27 days in presence of calcitriol; format: functional
Rattus norvegicus [25] = assay: Reduction in albuminuria in dietary salt-induced Sprague-Dawley rat partial ablation model of chronic kidney disease at 0.3 to 3 mg/kg administered with chow diet measured after 7 days; format: functional, organism-based
Rattus norvegicus [26] = species on record: Rattus norvegicus; assay: Reduction in plasma creatinine level in Sprague-Dawley rat model of uremia-associated vascular calcification measured after 27 days in presence of calcitriol; format: functional
Rattus norvegicus [27] = assay: Reduction in aortic calcium content in adenine-induced uremic Sprague-Dawley rat model at 5 mg/kg administered with chow diet; format: functional, organism-based
Rattus norvegicus [28] = species on record: Rattus norvegicus; assay: Reduction in plasma FGF23 level in Sprague-Dawley rat model of uremia-associated vascular calcification measured after 27 days in presence of calcitriol; format: functional
Rattus norvegicus [29] = assay: Anti-remodeling activity in adenine-induced uremic Sprague-Dawley rat model assessed as decrease in ratio of heart weight to body weight at 2 to 5 mg/kg administered with chow diet; format: functional, organism-based
Rattus norvegicus [30] = assay: Effect on urinary excretion of phosphorus in dietary salt-induced Sprague-Dawley rat partial ablation model of chronic kidney disease at 0.3 to 3 mg/kg administered with chow diet measured after 7 days; format: functional, organism-based
Rattus norvegicus [31] = assay: Anti-remodeling activity in adenine-induced uremic Sprague-Dawley rat model assessed as decrease in ratio of kidney weight to body weight at 2 to 5 mg/kg administered with chow diet; format: functional, organism-based
Rattus norvegicus [32] = assay: Reduction in stomach calcium content in adenine-induced uremic Sprague-Dawley rat model at 5 mg/kg administered with chow diet; format: functional, organism-based
Rattus norvegicus [33] = assay: Antihypertrophic activity in dietary salt-induced Sprague-Dawley rat partial ablation model of chronic kidney disease assessed as change in heart morphology at 0.3 to 3 mg/kg administered with chow diet measured after 7 days; format: functional, organism-based
Rattus norvegicus [34] = species on record: Rattus norvegicus; assay: Increase in plasma albumin level in Sprague-Dawley rat model of uremia-associated vascular calcification measured after 27 days in presence of calcitriol; format: functional
Rattus norvegicus [35] = assay: Reduction in aortic phosphorus content in adenine-induced uremic Sprague-Dawley rat model at 5 mg/kg administered with chow diet; format: functional, organism-based

Molecule `CN(C)[C@H]1Cc2c(Cl)cc(Cl)cc2[C@@H]1Oc1ccc(S(=O)(=O)N(C)CCOCCOCCNC(=O)NCCCCNC(=O)NCCOCCOCCN(C)S(=O)(=O)c2ccc(O[C@H]3c4cc(Cl)cc(Cl)c4C[C@@H]3N(C)C)cc2)cc1` has an Activity (Rattus norvegicus [1]) of 49% and an Activity (Rattus norvegicus [2]) of 49%.

In the case of `CN1Cc2c(Cl)cc(Cl)cc2[C@@H](c2cccc(S(=O)(=O)NCCOCCOCCNC(=O)NCCCCNC(=O)NCCOCCOCCNS(=O)(=O)c3cccc([C@@H]4CN(C)Cc5c(Cl)cc(Cl)cc54)c3)c2)C1.Cl.Cl`, the Activity (Rattus norvegicus [1]) is reported as 90%.

Work on `CN1Cc2c(Cl)cc(Cl)cc2[C@H](c2cccc(S(=O)(=O)NCCOCCOCCNC(=O)NCCN(CCNC(=O)NCCOCCOCCNS(=O)(=O)c3cccc([C@@H]4CN(C)Cc5c(Cl)cc(Cl)cc54)c3)C(=O)CCOCCOCCOCCOCCOCCC(=O)N(CCNC(=O)NCCOCCOCCNS(=O)(=O)c3cccc([C@@H]4CN(C)Cc5c(Cl)cc(Cl)cc54)c3)CCNC(=O)NCCOCCOCCNS(=O)(=O)c3cccc([C@@H]4CN(C)Cc5c(Cl)cc(Cl)cc54)c3)c2)C1` yielded an Activity (Rattus norvegicus [1]) of 47% and an Activity (Rattus norvegicus [2]) of 69%.

For `N=C(N)Nc1nc(-c2ccc(N3CCN(CCOCCOCCOCCNC(=O)CCOCCOCCOCCOCCOCCC(=O)NCCOCCOCCOCCN4CCN(c5ccc(-c6nc(NC(=N)N)nc7ccc(Cl)cc67)cc5)CC4)CC3)cc2)c2cc(Cl)ccc2n1`, the Activity (Rattus norvegicus [1]) was 100%.

In the case of `O=C(NCCCCNC(=O)NCCOCCOCCNS(=O)(=O)c1ccc(O[C@H]2c3ccccc3C[C@@H]2N2CCCCC2)cc1)NCCOCCOCCNS(=O)(=O)c1ccc(O[C@H]2c3ccccc3C[C@@H]2N2CCCCC2)cc1`, the Activity (Rattus norvegicus [1]) is reported as 35 - 73% and the Activity (Rattus norvegicus [2]) is reported as 30 - 51%.

`CN1Cc2c(Cl)cc(Cl)cc2[C@H](c2cccc(S(=O)(=O)NCCOCCOCCOCCNC(=O)CN(CCOCCOCCN(CC(=O)NCCOCCOCCOCCNS(=O)(=O)c3cccc([C@@H]4CN(C)Cc5c(Cl)cc(Cl)cc54)c3)CC(=O)NCCOCCOCCOCCNS(=O)(=O)c3cccc([C@@H]4CN(C)Cc5c(Cl)cc(Cl)cc54)c3)CC(=O)NCCOCCOCCOCCNS(=O)(=O)c3cccc([C@@H]4CN(C)Cc5c(Cl)cc(Cl)cc54)c3)c2)C1` showed an Activity (Rattus norvegicus [1]) of 51% and an Activity (Rattus norvegicus [2]) of 95%.

For `CN1Cc2c(Cl)cc(Cl)cc2[C@H](c2cccc(S(=O)(=O)NCCOCCOCCNC(=O)CCC(CCC(=O)NCCOCCOCCNS(=O)(=O)c3cccc([C@@H]4CN(C)Cc5c(Cl)cc(Cl)cc54)c3)(CCC(=O)NCCOCCOCCNS(=O)(=O)c3cccc([C@@H]4CN(C)Cc5c(Cl)cc(Cl)cc54)c3)NC(=O)N[C@@H](CC(=O)O)C(=O)O)c2)C1`, the Activity (Rattus norvegicus [3]) was 41% and the Activity (Rattus norvegicus [4]) was 51%.

In the case of `CN1Cc2c(Cl)cc(Cl)cc2[C@H](c2cccc(S(=O)(=O)NCCOCCOCCNC(=O)NCCCCNC(=O)NCCOCCOCCNS(=O)(=O)c3cccc([C@@H]4CN(C)Cc5c(Cl)cc(Cl)cc54)c3)c2)C1`, the Activity (Rattus norvegicus [5]) is reported as “Active”, the Activity (Rattus norvegicus [6]) is reported as “Active” and the Activity (Rattus norvegicus [7]) is reported as “Active”. For the same molecule, the Activity (Rattus norvegicus [8]) was “Active”, the Activity (Rattus norvegicus [9]) was “Active” and the Activity (Rattus norvegicus [10]) was “Active”. For the same molecule, the Activity (Rattus norvegicus [11]) was “Active”, the Activity (Rattus norvegicus [12]) was “Active” and the Activity (Rattus norvegicus [13]) was “Active”. For the same molecule, the Activity (Rattus norvegicus [14]) was “Active”, the Activity (Rattus norvegicus [15]) was “Active” and the Activity [16] was “Active”. For the same molecule, the Activity (Rattus norvegicus [17]) was “Active”, the Activity (Rattus norvegicus [18]) was “Active” and the Activity (Rattus norvegicus [19]) was “Active”. For the same molecule, the Activity (Rattus norvegicus [20]) was “Active”, the Activity (Rattus norvegicus [21]) was “Active” and the Activity (Rattus norvegicus [22]) was “Active”. For the same molecule, the Activity (Rattus norvegicus [23]) was “Active”, the Activity (Rattus norvegicus [24]) was “Active” and the Activity (Rattus norvegicus [25]) was “Active”. The Activity (Rattus norvegicus [26]) was “Active”, the Activity (Rattus norvegicus [27]) was “Active” and the Activity (Rattus norvegicus [28]) was “Active”. The Activity (Rattus norvegicus [29]) was “Active”, the Activity (Rattus norvegicus [30]) was “Active” and the Activity (Rattus norvegicus [31]) was “Active”. For the same molecule, the Activity (Rattus norvegicus [32]) was “Active”, the Activity (Rattus norvegicus [33]) was “Active” and the Activity (Rattus norvegicus [34]) was “Active”. The Activity (Rattus norvegicus [35]) was “Active”.
